Columns and labels:
[1] = tested on: IL-2 stimulated STAT5 phosphorylation in Tall-1 human T cell line (JAK3); test: Cellular JAK3 potency assay: inhibition of IL-2 stimulated pSTAT5 in Tall-1 T cells; format: cell-based; conditions: IL-2 stimulated pSTAT5, Tall-1 T cells
Procedure, shortened: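 AlphaLISA SureFire Ultra measures STAT5 Tyr694/699 phosphorylation in lysed Tall-1 human T cells. Cells were exposed to compound for 1 h at 37 °C before a 30 min IL-2 challenge (300 ng/ml final). Values are pIC50 means with standard deviation from signal-versus-concentration curves.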

Caco-2 cell monolayers = test: Caco-2 permeation assay; format: in vitro ADME; conditions: 5 μM, A-B direction, with Verapamil (25 μM)
Procedure, shortened: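 Passive A-to-B permeability with P-gp inhibited by verapamil (25 μM); compound at 5 μM, n=2. Both compartments sampled at t0 and t120 and quantified by LC-MS/MS, giving apparent permeability in cm/sec from flux, area and concentration.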

Tyk2 = Tyk2 (Homo sapiens (Human), UniProt P29597); test: Biochemical Tyk2 kinase assay (LanthaScreen)
Procedure, shortened: (§1)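 GST-JAK + GFP-STAT1 peptide, HEPES pH 7.5/MgCl2/EGTA/Brij-35 buffer; cpd preincubation 1 h RT; ATP start, 1 h RT; stop with 10 mM EDTA + 2 nM Tb-anti-pSTAT1; TR-FRET 520/495. 4-parameter IC50 → pKi (Cheng-Prusoff).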

JAK2 = JAK2 (Homo sapiens (Human), UniProt O60674); test: Biochemical JAK2 kinase assay (LanthaScreen)
Procedure, shortened: as §1

JAK3 = JAK3 (Homo sapiens (Human), UniProt P52333); test: Biochemical JAK3 kinase assay (LanthaScreen); conditions: for JAK3 (pKi)-JAK1 (pKi): selectivity JAK3 over JAK1, difference of pKi
Procedure, shortened: as §1

JAK1 = JAK1 (Homo sapiens (Human), UniProt P23458); test: Biochemical JAK1 kinase assay (LanthaScreen)
Procedure, shortened: as §1

Sequence of JAK3 (P52333 whole entry): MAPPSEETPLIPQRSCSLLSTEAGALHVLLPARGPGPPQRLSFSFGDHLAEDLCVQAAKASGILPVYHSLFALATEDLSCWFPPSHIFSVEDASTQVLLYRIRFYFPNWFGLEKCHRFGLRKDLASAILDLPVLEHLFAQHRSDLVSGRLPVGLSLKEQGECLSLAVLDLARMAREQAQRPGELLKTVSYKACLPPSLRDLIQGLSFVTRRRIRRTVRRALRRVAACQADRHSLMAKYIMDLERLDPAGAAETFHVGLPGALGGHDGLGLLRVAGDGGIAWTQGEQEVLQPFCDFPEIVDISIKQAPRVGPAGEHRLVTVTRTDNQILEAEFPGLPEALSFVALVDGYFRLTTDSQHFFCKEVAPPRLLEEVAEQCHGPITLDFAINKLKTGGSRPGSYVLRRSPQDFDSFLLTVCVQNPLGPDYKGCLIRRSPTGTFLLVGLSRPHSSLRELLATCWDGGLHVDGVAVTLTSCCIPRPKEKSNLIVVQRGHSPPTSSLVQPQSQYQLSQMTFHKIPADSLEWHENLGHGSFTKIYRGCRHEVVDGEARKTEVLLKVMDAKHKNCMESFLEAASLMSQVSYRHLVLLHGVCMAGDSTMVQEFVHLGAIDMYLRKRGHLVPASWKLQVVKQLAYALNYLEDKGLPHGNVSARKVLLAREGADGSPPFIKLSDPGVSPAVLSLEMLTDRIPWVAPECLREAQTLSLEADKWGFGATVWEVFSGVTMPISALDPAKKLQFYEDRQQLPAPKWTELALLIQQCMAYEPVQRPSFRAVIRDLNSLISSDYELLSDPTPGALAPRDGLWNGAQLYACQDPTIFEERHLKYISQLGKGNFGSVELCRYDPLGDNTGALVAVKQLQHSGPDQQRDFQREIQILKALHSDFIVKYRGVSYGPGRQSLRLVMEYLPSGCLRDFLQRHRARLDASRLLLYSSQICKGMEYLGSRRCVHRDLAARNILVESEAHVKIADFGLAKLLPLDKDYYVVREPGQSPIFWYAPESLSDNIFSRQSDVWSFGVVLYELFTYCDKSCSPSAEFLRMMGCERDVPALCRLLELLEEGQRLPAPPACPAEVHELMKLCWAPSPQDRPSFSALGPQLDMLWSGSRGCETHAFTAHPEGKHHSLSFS
Sequence of Tyk2 (P29597 whole entry): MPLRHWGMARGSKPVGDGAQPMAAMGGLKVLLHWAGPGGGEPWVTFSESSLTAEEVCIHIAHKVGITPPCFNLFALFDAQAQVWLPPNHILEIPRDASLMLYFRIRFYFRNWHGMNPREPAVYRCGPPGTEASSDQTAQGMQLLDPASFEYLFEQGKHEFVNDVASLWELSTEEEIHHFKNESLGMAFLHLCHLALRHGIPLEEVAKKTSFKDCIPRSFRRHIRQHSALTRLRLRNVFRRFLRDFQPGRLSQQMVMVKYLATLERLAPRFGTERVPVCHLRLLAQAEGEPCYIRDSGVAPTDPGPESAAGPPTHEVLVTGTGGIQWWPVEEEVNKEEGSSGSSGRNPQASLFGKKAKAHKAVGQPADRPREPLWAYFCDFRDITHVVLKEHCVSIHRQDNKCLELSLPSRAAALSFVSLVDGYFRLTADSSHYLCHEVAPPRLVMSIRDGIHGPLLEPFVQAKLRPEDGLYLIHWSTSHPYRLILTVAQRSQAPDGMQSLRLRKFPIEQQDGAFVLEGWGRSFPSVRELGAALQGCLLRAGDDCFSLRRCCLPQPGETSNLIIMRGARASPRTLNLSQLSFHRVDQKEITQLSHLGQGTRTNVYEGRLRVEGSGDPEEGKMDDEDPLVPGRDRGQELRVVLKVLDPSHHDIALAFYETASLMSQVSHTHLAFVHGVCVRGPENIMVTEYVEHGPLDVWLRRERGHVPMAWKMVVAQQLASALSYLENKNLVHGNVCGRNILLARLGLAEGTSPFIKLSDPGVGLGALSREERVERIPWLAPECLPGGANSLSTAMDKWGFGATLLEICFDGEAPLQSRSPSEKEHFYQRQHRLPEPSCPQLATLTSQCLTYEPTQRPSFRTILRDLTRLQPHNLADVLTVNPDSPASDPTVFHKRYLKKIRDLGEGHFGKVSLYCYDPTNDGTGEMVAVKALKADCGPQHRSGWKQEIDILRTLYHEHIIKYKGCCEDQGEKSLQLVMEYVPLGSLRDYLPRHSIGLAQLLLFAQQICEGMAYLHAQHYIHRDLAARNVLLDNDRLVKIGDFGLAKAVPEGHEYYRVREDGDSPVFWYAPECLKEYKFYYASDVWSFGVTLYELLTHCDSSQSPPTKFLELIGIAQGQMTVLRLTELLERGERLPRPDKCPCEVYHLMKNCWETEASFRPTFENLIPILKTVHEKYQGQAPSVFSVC
Sequence of JAK2 (O60674 whole entry): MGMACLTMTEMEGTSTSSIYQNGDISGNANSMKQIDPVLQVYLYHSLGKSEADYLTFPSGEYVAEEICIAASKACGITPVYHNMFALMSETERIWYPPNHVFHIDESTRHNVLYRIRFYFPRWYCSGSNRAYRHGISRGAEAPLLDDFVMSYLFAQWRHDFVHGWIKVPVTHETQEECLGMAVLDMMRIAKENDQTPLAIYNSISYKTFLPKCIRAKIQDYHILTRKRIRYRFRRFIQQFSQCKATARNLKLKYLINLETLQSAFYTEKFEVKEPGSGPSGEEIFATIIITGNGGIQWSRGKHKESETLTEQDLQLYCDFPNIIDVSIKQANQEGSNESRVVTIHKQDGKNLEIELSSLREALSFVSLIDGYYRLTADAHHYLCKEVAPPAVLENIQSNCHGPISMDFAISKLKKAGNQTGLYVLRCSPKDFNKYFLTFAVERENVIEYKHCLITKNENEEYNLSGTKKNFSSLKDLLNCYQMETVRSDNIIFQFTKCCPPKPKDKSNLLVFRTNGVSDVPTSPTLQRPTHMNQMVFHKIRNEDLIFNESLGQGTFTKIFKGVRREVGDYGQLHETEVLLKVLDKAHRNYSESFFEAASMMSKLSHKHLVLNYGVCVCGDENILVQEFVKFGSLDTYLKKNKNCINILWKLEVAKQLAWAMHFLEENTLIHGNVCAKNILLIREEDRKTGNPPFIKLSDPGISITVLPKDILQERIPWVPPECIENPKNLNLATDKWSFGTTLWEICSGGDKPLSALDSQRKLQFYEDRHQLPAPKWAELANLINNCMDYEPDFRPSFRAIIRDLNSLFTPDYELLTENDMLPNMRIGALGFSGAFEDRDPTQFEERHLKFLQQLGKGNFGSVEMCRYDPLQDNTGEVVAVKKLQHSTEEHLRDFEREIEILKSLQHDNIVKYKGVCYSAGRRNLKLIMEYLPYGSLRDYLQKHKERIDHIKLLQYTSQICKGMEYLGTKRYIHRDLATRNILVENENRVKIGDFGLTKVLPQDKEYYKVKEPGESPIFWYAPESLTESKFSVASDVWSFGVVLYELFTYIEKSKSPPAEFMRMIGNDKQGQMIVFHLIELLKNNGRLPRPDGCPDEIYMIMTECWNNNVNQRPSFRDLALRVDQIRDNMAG
Sequence of JAK1 (P23458 whole entry): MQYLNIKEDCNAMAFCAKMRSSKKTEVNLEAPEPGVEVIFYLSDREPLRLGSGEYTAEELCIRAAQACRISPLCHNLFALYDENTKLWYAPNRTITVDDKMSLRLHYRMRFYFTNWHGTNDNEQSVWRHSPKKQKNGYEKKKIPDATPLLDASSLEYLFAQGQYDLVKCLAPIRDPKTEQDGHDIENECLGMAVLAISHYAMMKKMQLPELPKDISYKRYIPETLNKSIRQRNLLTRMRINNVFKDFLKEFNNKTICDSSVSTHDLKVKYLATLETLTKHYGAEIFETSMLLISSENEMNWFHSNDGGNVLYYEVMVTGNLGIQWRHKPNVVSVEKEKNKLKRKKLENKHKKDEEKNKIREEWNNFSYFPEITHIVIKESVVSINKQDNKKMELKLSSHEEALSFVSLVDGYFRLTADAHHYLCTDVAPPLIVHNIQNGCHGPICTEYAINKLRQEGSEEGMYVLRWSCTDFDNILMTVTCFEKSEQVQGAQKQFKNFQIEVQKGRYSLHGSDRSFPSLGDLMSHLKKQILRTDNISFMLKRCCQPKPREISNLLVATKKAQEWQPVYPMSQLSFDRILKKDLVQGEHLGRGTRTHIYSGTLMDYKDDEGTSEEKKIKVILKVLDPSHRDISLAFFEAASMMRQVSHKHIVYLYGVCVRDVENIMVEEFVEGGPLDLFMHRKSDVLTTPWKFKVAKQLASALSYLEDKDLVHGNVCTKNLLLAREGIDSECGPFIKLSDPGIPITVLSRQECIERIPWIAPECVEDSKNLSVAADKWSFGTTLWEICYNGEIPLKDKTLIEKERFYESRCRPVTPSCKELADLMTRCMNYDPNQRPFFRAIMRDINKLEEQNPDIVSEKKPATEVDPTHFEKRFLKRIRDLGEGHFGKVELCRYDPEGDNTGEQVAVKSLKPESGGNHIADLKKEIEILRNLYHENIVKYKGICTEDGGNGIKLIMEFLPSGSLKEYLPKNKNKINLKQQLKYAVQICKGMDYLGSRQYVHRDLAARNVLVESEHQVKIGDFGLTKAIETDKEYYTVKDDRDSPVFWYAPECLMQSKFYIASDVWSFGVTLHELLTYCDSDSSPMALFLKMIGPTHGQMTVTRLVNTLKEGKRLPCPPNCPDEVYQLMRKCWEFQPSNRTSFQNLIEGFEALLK

SMILES: C=CC(=O)N1CC(CCn2c(=O)ccc3cnc(Nc4cccc(N5CCN(C(C)=O)CC5)c4)nc32)C1 [Example 78]
- Tall-1 (pIC50) [1]: B (B represents a pC50 value between 6.7 (included) and 7.5 (IC50 between 200 nM and 32 nM))
- Caco Kp (Caco-2 cell monolayers): A (A represents a value below 5×10^−6 cm/sec)
- Tyk 2 (pKi) (Tyk2): E (E represents a pKi value of 7 or below (Ki of 100 nM or above))
- JAK 2 (pKi) (JAK2): E (E represents a pKi value of 7 or below (Ki of 100 nM or above))
- JAK 3 (pKi) (JAK3): B (B represents pKi value between 9 and 10 (Ki between 1 nM and 0.1 nM))
- JAK3 (pKi)-JAK1 (pKi) (JAK3): A (A represents a value of 3 or above)
- JAK 1 (pKi) (JAK1): E (E represents a pKi value of 7 or below (Ki of 100 nM or above))

SMILES: C=CC(=O)N1CCN(CCn2c(=O)ccc3cnc(Nc4ccc(CN5CCOCC5)cc4)nc32)CC1 [Example 80]
- Tall-1 (pIC50) [1]: B (B represents a pC50 value between 6.7 (included) and 7.5 (IC50 between 200 nM and 32 nM))
- Caco Kp (Caco-2 cell monolayers): C (C represents a value between 10×10^−6 and 30×10^−6 cm/sec)
- Tyk 2 (pKi) (Tyk2): E (E represents a pKi value of 7 or below (Ki of 100 nM or above))
- JAK 2 (pKi) (JAK2): E (E represents a pKi value of 7 or below (Ki of 100 nM or above))
- JAK 3 (pKi) (JAK3): B (B represents pKi value between 9 and 10 (Ki between 1 nM and 0.1 nM))
- JAK3 (pKi)-JAK1 (pKi) (JAK3): A (A represents a value of 3 or above)
- JAK 1 (pKi) (JAK1): E (E represents a pKi value of 7 or below (Ki of 100 nM or above))

SMILES: C=CC(=O)N1CC(CCn2c(=O)ccc3cnc(Nc4ccc5[nH]ncc5c4)nc32)C1 [Example 82]
- Tall-1 (pIC50) [1]: C (C represents a pIC50 value between 6 and 6.7 (IC50 between 1 μM and 200 nM))
- Caco Kp (Caco-2 cell monolayers): A (A represents a value below 5×10^−6 cm/sec)
- Tyk 2 (pKi) (Tyk2): E (E represents a pKi value of 7 or below (Ki of 100 nM or above))
- JAK 2 (pKi) (JAK2): E (E represents a pKi value of 7 or below (Ki of 100 nM or above))
- JAK 3 (pKi) (JAK3): B (B represents pKi value between 9 and 10 (Ki between 1 nM and 0.1 nM))
- JAK3 (pKi)-JAK1 (pKi) (JAK3): A (A represents a value of 3 or above)
- JAK 1 (pKi) (JAK1): E (E represents a pKi value of 7 or below (Ki of 100 nM or above))

SMILES: C=CC(=O)N1CC(CCn2c(=O)ccc3cnc(Nc4ccc5cn[nH]c5c4)nc32)C1 [Example 83]
- Tall-1 (pIC50) [1]: C (C represents a pIC50 value between 6 and 6.7 (IC50 between 1 μM and 200 nM))
- Caco Kp (Caco-2 cell monolayers): A (A represents a value below 5×10^−6 cm/sec)
- Tyk 2 (pKi) (Tyk2): E (E represents a pKi value of 7 or below (Ki of 100 nM or above))
- JAK 2 (pKi) (JAK2): E (E represents a pKi value of 7 or below (Ki of 100 nM or above))
- JAK 3 (pKi) (JAK3): B (B represents pKi value between 9 and 10 (Ki between 1 nM and 0.1 nM))
- JAK3 (pKi)-JAK1 (pKi) (JAK3): A (A represents a value of 3 or above)
- JAK 1 (pKi) (JAK1): E (E represents a pKi value of 7 or below (Ki of 100 nM or above))

SMILES: C=CC(=O)N1CC(CCn2c(=O)ccc3cnc(Nc4cccc(CN5CCSCC5)c4)nc32)C1 [Example 85]
- Tall-1 (pIC50) [1]: B (B represents a pC50 value between 6.7 (included) and 7.5 (IC50 between 200 nM and 32 nM))
- Caco Kp (Caco-2 cell monolayers): C (C represents a value between 10×10^−6 and 30×10^−6 cm/sec)
- Tyk 2 (pKi) (Tyk2): E (E represents a pKi value of 7 or below (Ki of 100 nM or above))
- JAK 2 (pKi) (JAK2): E (E represents a pKi value of 7 or below (Ki of 100 nM or above))
- JAK 3 (pKi) (JAK3): A (A represents a pKi value≥10 (Ki≤0.1 nM))
- JAK3 (pKi)-JAK1 (pKi) (JAK3): A (A represents a value of 3 or above)
- JAK 1 (pKi) (JAK1): E (E represents a pKi value of 7 or below (Ki of 100 nM or above))

SMILES: C=CC(=O)N1CC(CCn2c(=O)ccc3cnc(Nc4ccc(CN5CCSCC5)cc4)nc32)C1 [Example 86]
- Tall-1 (pIC50) [1]: B (B represents a pC50 value between 6.7 (included) and 7.5 (IC50 between 200 nM and 32 nM))
- Caco Kp (Caco-2 cell monolayers): C (C represents a value between 10×10^−6 and 30×10^−6 cm/sec)
- Tyk 2 (pKi) (Tyk2): E (E represents a pKi value of 7 or below (Ki of 100 nM or above))
- JAK 2 (pKi) (JAK2): E (E represents a pKi value of 7 or below (Ki of 100 nM or above))
- JAK 3 (pKi) (JAK3): B (B represents pKi value between 9 and 10 (Ki between 1 nM and 0.1 nM))
- JAK3 (pKi)-JAK1 (pKi) (JAK3): A (A represents a value of 3 or above)
- JAK 1 (pKi) (JAK1): E (E represents a pKi value of 7 or below (Ki of 100 nM or above))

SMILES: C=CC(=O)N1CC(CCn2c(=O)ccc3cnc(Nc4cccc(CN(C)C)c4)nc32)C1 [Example 90]
- Tall-1 (pIC50) [1]: B (B represents a pC50 value between 6.7 (included) and 7.5 (IC50 between 200 nM and 32 nM))
- Caco Kp (Caco-2 cell monolayers): A (A represents a value below 5×10^−6 cm/sec)
- Tyk 2 (pKi) (Tyk2): E (E represents a pKi value of 7 or below (Ki of 100 nM or above))
- JAK 2 (pKi) (JAK2): E (E represents a pKi value of 7 or below (Ki of 100 nM or above))
- JAK 3 (pKi) (JAK3): B (B represents pKi value between 9 and 10 (Ki between 1 nM and 0.1 nM))
- JAK3 (pKi)-JAK1 (pKi) (JAK3): A (A represents a value of 3 or above)
- JAK 1 (pKi) (JAK1): E (E represents a pKi value of 7 or below (Ki of 100 nM or above))

SMILES: C=CC(=O)N1CC(CCn2c(=O)ccc3cnc(Nc4ccc(N(C)C)cc4)nc32)C1 [Example 91]
- Tall-1 (pIC50) [1]: B (B represents a pC50 value between 6.7 (included) and 7.5 (IC50 between 200 nM and 32 nM))
- Caco Kp (Caco-2 cell monolayers): D (D represents a value over 30×10^−6 cm/sec)
- Tyk 2 (pKi) (Tyk2): E (E represents a pKi value of 7 or below (Ki of 100 nM or above))
- JAK 2 (pKi) (JAK2): E (E represents a pKi value of 7 or below (Ki of 100 nM or above))
- JAK 3 (pKi) (JAK3): A (A represents a pKi value≥10 (Ki≤0.1 nM))
- JAK3 (pKi)-JAK1 (pKi) (JAK3): A (A represents a value of 3 or above)
- JAK 1 (pKi) (JAK1): E (E represents a pKi value of 7 or below (Ki of 100 nM or above))

SMILES: C=CC(=O)N1CC(CCn2c(=O)ccc3cnc(Nc4ccc(N5CCN(S(C)(=O)=O)CC5)cc4)nc32)C1 [Example 94]
- Tall-1 (pIC50) [1]: A (A represents a pIC50 value≥7.5 (IC50≤32 nM))
- Caco Kp (Caco-2 cell monolayers): A (A represents a value below 5×10^−6 cm/sec)
- Tyk 2 (pKi) (Tyk2): E (E represents a pKi value of 7 or below (Ki of 100 nM or above))
- JAK 2 (pKi) (JAK2): E (E represents a pKi value of 7 or below (Ki of 100 nM or above))
- JAK 3 (pKi) (JAK3): A (A represents a pKi value≥10 (Ki≤0.1 nM))
- JAK3 (pKi)-JAK1 (pKi) (JAK3): A (A represents a value of 3 or above)
- JAK 1 (pKi) (JAK1): E (E represents a pKi value of 7 or below (Ki of 100 nM or above))

SMILES: C=CC(=O)N1CC(CCn2c(=O)ccc3cnc(Nc4ccc(N5CCN(C(=S)N(C)C)CC5)cc4)nc32)C1 [Example 95]
- Tall-1 (pIC50) [1]: A (A represents a pIC50 value≥7.5 (IC50≤32 nM))
- Caco Kp (Caco-2 cell monolayers): A (A represents a value below 5×10^−6 cm/sec)
- Tyk 2 (pKi) (Tyk2): E (E represents a pKi value of 7 or below (Ki of 100 nM or above))
- JAK 2 (pKi) (JAK2): E (E represents a pKi value of 7 or below (Ki of 100 nM or above))
- JAK 3 (pKi) (JAK3): A (A represents a pKi value≥10 (Ki≤0.1 nM))
- JAK3 (pKi)-JAK1 (pKi) (JAK3): A (A represents a value of 3 or above)
- JAK 1 (pKi) (JAK1): E (E represents a pKi value of 7 or below (Ki of 100 nM or above))

SMILES: C=CC(=O)N1CC(CCn2c(=O)ccc3cnc(Nc4ccc(N5CCN(S(=O)(=O)NC)CC5)cc4)nc32)C1 [Example 96]
- Tall-1 (pIC50) [1]: B (B represents a pC50 value between 6.7 (included) and 7.5 (IC50 between 200 nM and 32 nM))
- Caco Kp (Caco-2 cell monolayers): A (A represents a value below 5×10^−6 cm/sec)
- Tyk 2 (pKi) (Tyk2): E (E represents a pKi value of 7 or below (Ki of 100 nM or above))
- JAK 2 (pKi) (JAK2): E (E represents a pKi value of 7 or below (Ki of 100 nM or above))
- JAK 3 (pKi) (JAK3): A (A represents a pKi value≥10 (Ki≤0.1 nM))
- JAK3 (pKi)-JAK1 (pKi) (JAK3): A (A represents a value of 3 or above)
- JAK 1 (pKi) (JAK1): E (E represents a pKi value of 7 or below (Ki of 100 nM or above))

SMILES: C=CC(=O)N1CC(CCn2c(=O)ccc3cnc(Nc4ccc(N5CCN(C(=O)SC(C)(C)C)CC5)cc4)nc32)C1 [Example 98]
- Tall-1 (pIC50) [1]: B (B represents a pC50 value between 6.7 (included) and 7.5 (IC50 between 200 nM and 32 nM))
- Caco Kp (Caco-2 cell monolayers): A (A represents a value below 5×10^−6 cm/sec)
- Tyk 2 (pKi) (Tyk2): E (E represents a pKi value of 7 or below (Ki of 100 nM or above))
- JAK 2 (pKi) (JAK2): E (E represents a pKi value of 7 or below (Ki of 100 nM or above))
- JAK 3 (pKi) (JAK3): A (A represents a pKi value≥10 (Ki≤0.1 nM))
- JAK3 (pKi)-JAK1 (pKi) (JAK3): A (A represents a value of 3 or above)
- JAK 1 (pKi) (JAK1): E (E represents a pKi value of 7 or below (Ki of 100 nM or above))

— patent US11697648B2, “Fused pyrimidine pyridinone compounds as JAK inhibitors” (THERAVANCE BIOPHARMA R&D IP, LLC, priority 2019, dated 2023)
